Reference: patent publication US5668161A, “Substituted thiazoles for the treatment of inflammation” (G.D. Searle & Co., priority 1996, dated 1997)
pIC50: −log10 of the molar value.

Legend:
human COX-I = human COX-I (Homo sapiens, UniProt P23219); test: COX I activity in vitro, human (PGE2 by ELISA)
[1] = test system: carrageenan-induced hyperalgesic foot withdrawal; test: Rat Carrageenan-induced Analgesia Test; format: in vivo, rat (Male Sprague-Dawley); conditions: for inhibition at 20 mg/kg: read-out: ANALGESIA % Inhibition, @ 20 mg/kg body weight, oral, 3 hours after carrageenan
Procedure: The carrageenan foot edema test was performed with materials, reagents and procedures essentially as described by Winter, et al., (Proc. Soc. Exp. Biol. Med., 111, 544 (1962)). Male Sprague-Dawley rats were selected in each group so that the average body weight was as close as possible. Rats were fasted with free access to water for over sixteen hours prior to the test. The rats were dosed orally (1 mL) with compounds suspended in vehicle containing 0.5% methylcellulose and 0.025% surfactant, or with vehicle alone. One hour later a subplantar injection of 0.1 mL of 1% solution of carrageenan/sterile 0.9% saline was administered and the volume of the injected foot was measured with a displacement plethysmometer connected to a pressure transducer with a digital indicator. Three hours after the injection of the carrageenan, the volume of the foot was again measured. The average foot swelling in a group of drug-treated animals was compared with that of a group of placebo-treated animals and the percentage inhibition of edema was determined (Otterness and Bliven, Laboratory Models for Testing NSAIDS, in Non-steroidal Anti-Inflammatory Drugs, (J. Lombardino, ed. 1985)). […] Rat Carrageenan-induced Analgesia Test
The analgesia test using rat carrageenan was performed with materials, reagents and procedures essentially as described by Hargreaves, et al., (Pain, 32, 77 (1988)). Male Sprague-Dawley rats were treated as previously described for the Carrageenan Foot Pad Edema test. Three hours after the injection of the carrageenan, the rats were placed in a special plexiglass container with a transparent floor having a high intensity lamp as a radiant heat source, positionable under the floor. After an initial twenty minute period, thermal stimulation was begun on either the injected foot or on the contralateral uninjected foot. […] The time until the rat withdraws its foot was then measured. The withdrawal latency in seconds was determined for the control and drug-treated groups, and percent inhibition of the hyperalgesic foot withdrawal determined.

human COX-II = biological target: T1, human COX-II (Homo sapiens, UniProt P35354); test: COX II activity in vitro, human (PGE2 by ELISA)
T1 sequence (P35354 18-604): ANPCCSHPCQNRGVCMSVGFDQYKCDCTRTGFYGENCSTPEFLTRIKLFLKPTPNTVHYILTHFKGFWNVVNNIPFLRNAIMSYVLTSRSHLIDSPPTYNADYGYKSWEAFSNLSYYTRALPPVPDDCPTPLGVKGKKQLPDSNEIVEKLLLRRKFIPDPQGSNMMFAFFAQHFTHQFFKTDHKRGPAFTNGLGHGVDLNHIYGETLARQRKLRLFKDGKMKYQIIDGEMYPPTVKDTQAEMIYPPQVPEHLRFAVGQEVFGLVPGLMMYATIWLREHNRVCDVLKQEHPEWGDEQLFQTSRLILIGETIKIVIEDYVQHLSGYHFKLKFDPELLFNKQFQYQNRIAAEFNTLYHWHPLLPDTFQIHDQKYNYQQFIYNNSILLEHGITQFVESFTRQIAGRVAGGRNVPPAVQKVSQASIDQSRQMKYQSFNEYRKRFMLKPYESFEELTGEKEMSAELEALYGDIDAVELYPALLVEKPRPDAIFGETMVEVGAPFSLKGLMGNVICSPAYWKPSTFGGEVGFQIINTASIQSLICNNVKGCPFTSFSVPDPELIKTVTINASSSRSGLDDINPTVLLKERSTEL

carrageenan foot edema = test: Rat Carrageenan Foot Pad Edema Test; format: in vivo, rat (Male Sprague-Dawley); conditions: @ 20 mg/kg body weight, oral, 3 hours after carrageenan, read-out: RAT PAW EDEMA % Inhibition
Procedure: Male Sprague-Dawley rats were selected in each group so that the average body weight was as close as possible. Rats were fasted with free access to water for over sixteen hours prior to the test. […] One hour later a subplantar injection of 0.1 mL of 1% solution of carrageenan/sterile 0.9% saline was administered and the volume of the injected foot was measured with a displacement plethysmometer connected to a pressure transducer with a digital indicator. Three hours after the injection of the carrageenan, the volume of the foot was again measured. […] Rat Carrageenan-induced Analgesia Test

murine COX-I = biological target: T2, murine COX-I (Mus musculus, UniProt P22437); test: COX I activity in vitro, murine (PGE2 by ELISA)
T2 sequence (P22437 27-602): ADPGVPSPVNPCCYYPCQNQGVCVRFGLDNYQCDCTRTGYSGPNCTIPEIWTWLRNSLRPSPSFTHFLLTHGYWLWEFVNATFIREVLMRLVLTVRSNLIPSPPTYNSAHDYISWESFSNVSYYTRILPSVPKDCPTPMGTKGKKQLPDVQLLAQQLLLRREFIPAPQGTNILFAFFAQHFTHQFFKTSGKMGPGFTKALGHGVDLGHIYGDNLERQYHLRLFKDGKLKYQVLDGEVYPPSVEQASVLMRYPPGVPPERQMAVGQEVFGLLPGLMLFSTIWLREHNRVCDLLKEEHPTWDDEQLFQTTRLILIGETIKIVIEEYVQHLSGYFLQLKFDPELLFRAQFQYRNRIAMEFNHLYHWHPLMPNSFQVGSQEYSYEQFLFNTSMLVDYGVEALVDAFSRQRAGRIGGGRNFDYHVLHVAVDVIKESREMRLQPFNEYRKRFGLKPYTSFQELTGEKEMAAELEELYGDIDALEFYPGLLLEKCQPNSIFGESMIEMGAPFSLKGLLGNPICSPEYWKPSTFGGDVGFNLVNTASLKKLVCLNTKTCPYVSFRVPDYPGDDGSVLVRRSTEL

murine COX-II = biological target: T3, murine COX-II (Mus musculus, UniProt Q05769); test: biochemical
T3 sequence (Q05769 18-604): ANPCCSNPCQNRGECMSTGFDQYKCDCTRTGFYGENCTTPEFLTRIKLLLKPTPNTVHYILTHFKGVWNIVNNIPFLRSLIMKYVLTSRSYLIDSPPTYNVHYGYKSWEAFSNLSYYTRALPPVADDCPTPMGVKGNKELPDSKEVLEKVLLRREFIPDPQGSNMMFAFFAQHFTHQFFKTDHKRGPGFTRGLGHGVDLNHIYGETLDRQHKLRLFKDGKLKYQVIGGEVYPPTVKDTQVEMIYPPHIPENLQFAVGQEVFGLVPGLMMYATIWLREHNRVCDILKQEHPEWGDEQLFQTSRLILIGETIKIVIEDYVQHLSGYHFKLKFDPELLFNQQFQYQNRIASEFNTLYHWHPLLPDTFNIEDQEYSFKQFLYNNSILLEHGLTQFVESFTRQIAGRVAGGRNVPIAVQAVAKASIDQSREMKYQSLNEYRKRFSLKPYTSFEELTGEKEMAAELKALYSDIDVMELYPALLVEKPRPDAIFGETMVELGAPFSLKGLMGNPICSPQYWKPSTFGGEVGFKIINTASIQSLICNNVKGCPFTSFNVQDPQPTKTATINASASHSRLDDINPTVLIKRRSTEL

COX II enzyme = conditions: E. Meade et al; Futaki et al; cited from earlier work

Chain of human COX-I (P23219 24-599): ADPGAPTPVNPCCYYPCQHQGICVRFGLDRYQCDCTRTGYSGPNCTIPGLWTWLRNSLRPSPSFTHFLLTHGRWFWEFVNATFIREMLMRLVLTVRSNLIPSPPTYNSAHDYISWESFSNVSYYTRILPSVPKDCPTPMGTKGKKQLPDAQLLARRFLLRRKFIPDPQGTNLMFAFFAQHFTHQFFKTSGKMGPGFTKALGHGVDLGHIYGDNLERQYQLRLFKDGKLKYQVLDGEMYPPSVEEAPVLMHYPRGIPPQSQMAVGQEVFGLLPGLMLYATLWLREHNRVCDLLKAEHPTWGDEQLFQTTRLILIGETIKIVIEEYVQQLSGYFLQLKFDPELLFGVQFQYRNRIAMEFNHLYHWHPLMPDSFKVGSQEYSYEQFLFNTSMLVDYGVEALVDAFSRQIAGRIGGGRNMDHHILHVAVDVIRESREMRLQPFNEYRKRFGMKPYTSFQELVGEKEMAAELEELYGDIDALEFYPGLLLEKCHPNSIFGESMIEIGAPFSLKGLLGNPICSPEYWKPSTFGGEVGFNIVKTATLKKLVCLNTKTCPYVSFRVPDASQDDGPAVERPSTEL

SMILES	pIC50 (human COX-I)	pIC50 (human COX-II)	pIC50 (murine COX-I)	pIC50 (murine COX-II)	inhibition at 30 mg/kg ([1]; read-out: ANALGESIA % Inhibition, a @ 30 mg/kg, oral, 3 hours after carrageenan) [%]	inhibition at 20 mg/kg (carrageenan foot edema) [%]	inhibition at 20 mg/kg [1] [%]	inhibition of the COX II enzyme (COX II enzyme)
CS(=O)(=O)Nc1ccc([N+](=O)[O-])cc1OC1CCCCC1 [N-(2-cyclohexyloxy-4-nitrophenyl)methanesulfonamide]								inhibits the COX II enzyme
COc1ccc2cc(CC(=O)O)ccc2c1 [6-methoxy-2-napthylacetic acid]								selectively inhibit the COX II enzyme

Further lines, with some results ahead:

pIC50 (human COX-I)	pIC50 (human COX-II)	pIC50 (murine COX-I)	pIC50 (murine COX-II)	SMILES	inhibition at 30 mg/kg ([1]; read-out: ANALGESIA % Inhibition, a @ 30 mg/kg, oral, 3 hours after carrageenan) [%]	inhibition at 20 mg/kg (carrageenan foot edema) [%]	inhibition at 20 mg/kg [1] [%]	inhibition of the COX II enzyme (COX II enzyme)
< 4.00	> 7.00			CS(=O)(=O)c1ccc(-c2sc(COc3cc(Cl)cc(Cl)c3)nc2-c2ccc(F)cc2)cc1 [Example 33, 2-[(3,5-Dichlorophenoxy)methyl)-4-(4-fluorophenyl)-5-[4-(methylsulfonyl)phenyl]thiazole]	34	36		
		6.30	7.00	CS(=O)(=O)c1ccc(-c2sc(NCc3ccccc3)nc2-c2ccc(F)cc2)cc1 [Example 29, 4-(4-Fluorophenyl)-5-(4-methylsulfonylphenyl)-2-benzylaminothiazole]		42	24	
	> 7.00	< 5.00	> 7.00	CS(=O)(=O)c1ccc(-c2sc(-c3ccccc3Cl)nc2-c2ccc(F)cc2)cc1 [Example 16, 2-(2-Chlorophenyl)-4-(4-fluorophenyl)-5-(4-methylsulfonylphenyl)thiazole]		50	27	
